For assay [1], the target named is human ATX (Homo sapiens (Human), UniProt Q13822). In words: Human ATX enzyme inhibition assay (fluorescence quenching, MR121 substrate). Format: biochemical. Here is the method: Human ATX Enzyme Inhibition Assay
ATX inhibition was measured by a fluorescence quenching assay using a specifically labeled substrate analogue (MR121 substrate). To obtain this MR121 substrate, BOC and TBS protected 6-amino-hexanoic acid (R)-3-({2-[3-(2-{2-[2-(2-amino-ethoxy)-ethoxy]-ethoxy}-ethoxy)-propionylamino]-ethoxy}-hydroxy-phosphoryloxy)-2-hydroxy-propyl ester (Ferguson et al., Org Lett 2006, 8 (10), 2023) was labeled with MR121 fluorophore (CAS 185308-24-1, 1-(3-carboxypropyl)-11-ethyl-1,2,3,4,8,9,10,11-octahydro-dipyrido[3,2-b:2′,3′-i]phenoxazin-13-ium) on the free amine of the ethanolamine side and then, after deprotection, subsequently with tryptophan on the side of the aminohexanoic acid.
(§1) Assay working solutions were made as follows:
Assay buffer (50 mM Tris-HCl, 140 mM NaCl, 5 mM KCl, 1 mM CaCl2, 1 mM MgCl2, 0.01% Triton-X-100, pH 8.0;
ATX solution: ATX (human His-tagged) stock solution (1.08 mg/mL in 20 mM bicine, pH 8.5, 0.15 M NaCl, 10% glycerol, 0.3% CHAPS, 0.02% NaN3), diluted to 1.4-2.5× final concentration in assay buffer;
MR121 substrate solution: MR121 substrate stock solution (800 μM MR121 substrate in DMSO), diluted to 2-5× final concentration in assay buffer.
Test compounds (10 mM stock in DMSO, 8 μL) were obtained in 384 well sample plates (Corning Costar #3655) and diluted with 8 μL DMSO. Row-wise serial dilutions were made by transferring 8 μL cpd solution to the next row up to row O. The compound and control solutions were mixed five times and 2 μL were transferred to 384 well assay plates (Corning Costar #3702). Then, 15 μL of 41.7 nM ATX solution was added (30 nM final concentration), mixed five times and then incubated for 15 minutes at 30° C. 10 μL of MR121 substrate solution was added (1 μM final concentration), mixed 30 times and then incubated for 15 minutes at 30° C.

The target in assay [2] is Human carbonic anhydrase II (hCA-II) (Homo sapiens (Human), UniProt P00918). As to the kind of experiment: Human carbonic anhydrase-II inhibition assay (absorbance, 4-nitrophenyl acetate substrate). The class given is biochemical. Here is the method:
Human Carbonic Anhydrase-II Inhibition Assay
Human carbonic anhydrase II (hCA-II) inhibition was measured by an absorbance method using 4-nitrophenyl acetate (4-NPA) as its substrate. 4-NPA can be catalyzed by active hCA II via a zinc-hydroxide mechanism. The nitrophenolate in the products can be ionized to generate a bright yellow anion with high absorbance at 348 to 400 nm, as reported in the literature (Armstrong et al., J. Biol. Chem. 1966, 241, 5137-5149). OD340 nm was chosen for detecting hCA II substrate conversion.
as §1
Assay buffer: 50 mM MOPS, 33 mM Na2SO4, 1 mM EDTA, 0.5 mg/ml BSA, pH 7.5;
Enzyme solution: hCA-II (human, full length) stock solution (1.0 mg/mL in 20 mM HEPES, 50 mM NaCl, pH 7.4), diluted to 2133× final concentration in assay buffer;
4-NPA substrate solution: 4-NPA substrate stock solution (250 mM in DMSO, stored at −20° C.), diluted to 50× final concentration in deionized water.
Test compounds (10 mM stock in DMSO, 100 μL) were obtained in […] sample plates (Corning Costar #3655) and diluted to 0.5 mM. Column-wise serial dilutions were made by transferring 20 μL compound solutions to the next column, from column 3 up to 22. After this, 1.2 μL were transferred to 384 well assay plates (Corning Costar #3701). Then 30 μL of 16 nM hCA II solution was added (8 nM final concentration), mixed five times. 30 μL of 4-NPA substrate solution was added (2.5 mM final concentration), mixed five times. Absorbance at 340 nm was then measured immediately as time zero. The assay plates were incubated at room temperature for 1 hour and then measured as time 1 hour (Perkin Elmer EnVision 2103; Filter: Photometric 340; Light intensity 60%; Number of flashes: 10). IC50 values and Ki values were calculated from these readouts.

The mark [3] stands for this setting: human His-tagged ATX 30 nM, MR121 substrate 1 μM, 30° C., read-out: ATX IC50.
Where [4] appears, read: hCA II 8 nM, 4-NPA 2.5 mM, absorbance 340 nm, room temperature 1 hour, read-out: CA-II IC50.

Read-outs that look alike come from different tables or passages of the source.

This passage reports IC50 results from patent publication US10647719B2, “Bicyclic compounds as dual ATX/CA inhibitors” (Hoffmann-La Roche Inc., priority 2015, dated 2020).

Take `CC(C)(C)C(=O)Nc1cc(C(F)(F)F)cnc1COC(=O)N1CC2=C(C1)CN(C(=O)c1ccc(S(N)(=O)=O)cn1)C2` [Example 1.05, [3-(2,2-dimethylpropanoylamino)-5-(trifluoromethyl)pyridin-2-yl]methyl 2-(5-sulfamoylpyridine-2-carbonyl)-1,3,4,6-tetrahydropyrrolo[3,4-c]pyrrole-5-carboxylate]: the IC50 in assay [1] (setting [3]) turned out to be 7 nM; in assay [2] (setting [4]), 11 nM.

Turning to `CC(C)(C)C(=O)Nc1cc(C(F)(F)F)cnc1COC(=O)N1CC2=C(C1)CN(C(=O)c1cc(F)c(S(N)(=O)=O)cc1F)C2` [Example 1.01, [3-(2,2-dimethylpropanoylamino)-5-(trifluoromethyl)pyridin-2-yl]methyl 2-(2,5-difluoro-4-sulfamoylbenzoyl)-1,3,4,6-tetrahydropyrrolo[3,4-c]pyrrole-5-carboxylate], the half-inhibitory concentration (IC50) in assay [1] (setting [3]) amounted to 10 nM; in assay [2] (setting [4]), 7 nM.

Regarding `CC(C)(C)C(=O)Nc1cc(C(F)(F)F)cnc1COC(=O)N1CC2=C(C1)CN(C(=O)c1ccc(S(N)(=O)=O)c(F)c1)C2` [Example 1.03, [3-(2,2-dimethylpropanoylamino)-5-(trifluoromethyl)pyridin-2-yl]methyl 2-(3-fluoro-4-sulfamoylbenzoyl)-1,3,4,6-tetrahydropyrrolo[3,4-c]pyrrole-5-carboxylate], the IC50 in assay [1] (setting [3]) was found to be 5 nM; in assay [2] (setting [4]) it was 9 nM.

As for `CC(C)(C)C(=O)Nc1ccc(Cl)nc1COC(=O)N1CC2=C(C1)CN(C(=O)c1ccc(S(N)(=O)=O)c(F)c1F)C2` [Example 1.22, [6-chloro-3-(2,2-dimethylpropanoylamino)pyridin-2-yl]methyl 2-(2,3-difluoro-4-sulfamoylbenzoyl)-1,3,4,6-tetrahydropyrrolo[3,4-c]pyrrole-5-carboxylate], the results for the 50% inhibitory concentration (IC50) in assay [1] (setting [3]) and in assay [2] (setting [4]) were 6 nM and 2 nM, respectively.

Turning to `CC(C)(C)C(=O)Nc1cc2ccccc2nc1COC(=O)N1CC2=C(C1)CN(C(=O)c1ccc(S(N)(=O)=O)cc1F)C2` [Example 4.01, [3-(2,2-dimethylpropanoylamino)quinolin-2-yl]methyl 2-(2-fluoro-4-sulfamoylbenzoyl)-1,3,4,6-tetrahydropyrrolo[3,4-c]pyrrole-5-carboxylate], the half-inhibitory concentration (IC50) in assay [1] (setting [3]) was 3 nM; in assay [2] (setting [4]), 3.6 nM.

In the case of `CC(C)(C)C(=O)Nc1ccc(Cl)nc1COC(=O)N1CC2=C(C1)CN(C(=O)c1cc(F)c(S(N)(=O)=O)cc1F)C2` [Example 1.20, [6-chloro-3-(2,2-dimethylpropanoylamino)pyridin-2-yl]methyl 2-(2,5-difluoro-4-sulfamoylbenzoyl)-1,3,4,6-tetrahydropyrrolo[3,4-c]pyrrole-5-carboxylate], the figures for the IC50 in assay [1] (setting [3]) and in assay [2] (setting [4]) were 15 nM and 2 nM, respectively.

For the compound `Cc1nnn(Cc2cc(C(F)(F)F)ccc2CCC(=O)N2CC3=C(C2)CN(C(=O)c2ncc(S(N)(=O)=O)cc2F)C3)n1` [Example 4.00, 5-fluoro-6-[2-[3-[2-[(5-methyltetrazol-2-yl)methyl]-4-(trifluoromethyl)phenyl]propanoyl]-1,3,4,6-tetrahydropyrrolo[3,4-c]pyrrole-5-carbonyl]pyridine-3-sulfonamide], the figures for the IC50 in assay [1] (setting [3]) and in assay [2] (setting [4]) were 10 nM and 3.8 nM, respectively.

On to `NS(=O)(=O)c1ccc(C(=O)N2CC3=C(CN(C(=O)c4cc(OCC5CCOCC5)nc(C5CC5)c4)C3)C2)nc1` [Example 1.07, 6-[5-[2-cyclopropyl-6-(oxan-4-ylmethoxy)pyridine-4-carbonyl]-1,3,4,6-tetrahydropyrrolo[3,4-c]pyrrole-2-carbonyl]pyridine-3-sulfonamide], for which the results for the 50% inhibitory concentration (IC50) in assay [1] (setting [3]) and in assay [2] (setting [4]) were 12 nM and 18 nM, respectively.

With `CC(C)(C)C(=O)Nc1cc(Cl)c(Cl)nc1COC(=O)N1CC2=C(C1)CN(C(=O)c1ccc(S(N)(=O)=O)cc1F)C2` [Example 1.29, [5,6-dichloro-3-(2,2-dimethylpropanoylamino)pyridin-2-yl]methyl 2-(2-fluoro-4-sulfamoylbenzoyl)-1,3,4,6-tetrahydropyrrolo[3,4-c]pyrrole-5-carboxylate], the concentration for half-maximal inhibition (IC50) in assay [1] was 11 nM; in assay [2], 1.2 nM.

Consider `Cc1ccc(NC(=O)C(C)(C)C)c(COC(=O)N2CC3=C(C2)CN(C(=O)c2ccc(S(N)(=O)=O)cc2F)C3)n1` [Example 1.17, [3-(2,2-dimethylpropanoylamino)-6-methylpyridin-2-yl]methyl 2-(2-fluoro-4-sulfamoylbenzoyl)-1,3,4,6-tetrahydropyrrolo[3,4-c]pyrrole-5-carboxylate], for which the values for the concentration for half-maximal inhibition (IC50) in assay [1] (setting [3]) and in assay [2] (setting [4]) were 11 nM and 4 nM, respectively.

In the case of `CC(C)(C)C(=O)Nc1ccc(Cl)nc1COC(=O)N1CC2=C(C1)CN(C(=O)c1c(F)cc(S(N)(=O)=O)cc1F)C2` [Example 1.23, [6-chloro-3-(2,2-dimethylpropanoylamino)pyridin-2-yl]methyl 2-(2,6-difluoro-4-sulfamoylbenzoyl)-1,3,4,6-tetrahydropyrrolo[3,4-c]pyrrole-5-carboxylate], the IC50 in assay [1] (setting [3]) was 10 nM; in assay [2] (setting [4]) it was 1 nM.

Consider `NS(=O)(=O)c1ccc(C(=O)N2CC3=C(CN(C(=O)/C=C/c4ccc(OC(F)(F)F)cc4)C3)C2)c(F)c1` [Example 3.00, 3-Fluoro-4-[2-[(E)-3-[4-(trifluoromethoxy)phenyl]prop-2-enoyl]-1,3,4,6-tetrahydropyrrolo[3,4-c]pyrrole-5-carbonyl]benzenesulfonamide], for which the IC50 turned out to be 5 nM in assay [1] (setting [3]) and 9 nM in assay [2] (setting [4]).

On to `CC(C)(C)C(=O)Nc1ccc(Cl)nc1COC(=O)N1CC2=C(C1)CN(C(=O)c1ccc(S(N)(=O)=O)cc1F)C2` [Example 1.18, [6-chloro-3-(2,2-dimethylpropanoylamino)pyridin-2-yl]methyl 2-(2-fluoro-4-sulfamoylbenzoyl)-1,3,4,6-tetrahydropyrrolo[3,4-c]pyrrole-5-carboxylate], for which the figures for the IC50 in assay [1] (setting [3]) and in assay [2] (setting [4]) were 2 nM and 1 nM, respectively.

On to `CC(C)(C)C(=O)Nc1cc(Cl)cnc1COC(=O)N1CC2=C(C1)CN(C(=O)c1cc(F)c(S(N)(=O)=O)cc1F)C2` [Example 1.16, [5-chloro-3-(2,2-dimethylpropanoylamino)pyridin-2-yl]methyl 2-(2,5-difluoro-4-sulfamoylbenzoyl)-1,3,4,6-tetrahydropyrrolo[3,4-c]pyrrole-5-carboxylate], for which the values for the IC50 in assay [1] (setting [3]) and in assay [2] (setting [4]) were 9 nM and 10.2 nM, respectively.

Regarding `Cc1cnn(Cc2cc(C(F)(F)F)ccc2CCC(=O)N2CC3=C(C2)CN(C(=O)c2ccc(S(N)(=O)=O)cc2F)C3)n1` [Example 3.08, 3-fluoro-4-[2-[3-[2-[(4-methyltriazol-2-yl)methyl]-4-(trifluoromethyl)phenyl]propanoyl]-1,3,4,6-tetrahydropyrrolo[3,4-c]pyrrole-5-carbonyl]benzenesulfonamide], the half-inhibitory concentration (IC50) was 1 nM in assay [1] and 6 nM in assay [2].

As for `NS(=O)(=O)c1ccc(C(=O)N2CC3=C(CN(C(=O)OCc4ccc(OC(F)(F)F)cc4)C3)C2)c(F)c1` [Example 2.03, [4-(trifluoromethoxy)phenyl]methyl 2-(2-fluoro-4-sulfamoylbenzoyl)-1,3,4,6-tetrahydropyrrolo[3,4-c]pyrrole-5-carboxylate], the figures for the IC50 in assay [1] and in assay [2] were 2 nM and 6 nM, respectively.

What is called IC50 is the concentration at which inhibition is half-maximal.
